Measured values: ChEMBL document CHEMBL4715853 (J Med Chem, 2020)

Columns and labels:
[1] = system: SARS-CoV-2; assay: Antiviral actvity against SARS-CoV2 infected in human assessed as improvement rate of chest at 400 mg, po administered twice daily cotreated with 100 mg ritonavir and measured after 14 days by computed tomography; type: functional, Severe acute respiratory syndrome coronavirus 2; details: time 14 day
[2] = Cytotoxicity against human Huh-7 cells incubated for 1 hr by MTS assay; type: cell-based
[3] = Cytotoxicity against African green monkey Vero E6 cells incubated for 3 days by the MTS assay; type: cell-based, Vero C1008; details: chlorocebus sabaeus, time 3 day
[4] = Toxicity in human infected with SARS-CoV2 assessed as adverse events at 400 mg, po administered twice daily cotreated with 100 mg ritonavir and measured after 14 days; type: organism-based; details: in vivo, 336 h, time 14 day
[5] = system: Human coronavirus OC43; assay: Antiviral activity against wild type HCoV-OC43 infected in BHK-21 cells incubated for 72 hrs by RT-PCR method; type: functional, cell-based; details: Betacoronavirus 1, BHK-21, 72 h
[6] = system: SARS-CoV; assay: Antiviral activity against SARS-CoV BJ-001 infected in African green monkey Vero E6 cells assessed as reduction in virus induced cytopathic effect by visual observation; type: functional, organism-based; details: Severe acute respiratory syndrome-related coronavirus, BJ-001, Vero C1008
[7] = system: SARS-CoV; assay: Antiviral activity against SARS-CoV BJ-001 infected in African green monkey Vero E6 cells assessed as reduction in virus induced cytopathic effect incubated for 72 hrs by MTS/phenazine methosulfate method; type: functional, organism-based; details: Severe acute respiratory syndrome-related coronavirus, BJ-001, Vero C1008, 72 h
[8] = Cytotoxicity against African green monkey Vero E6 cells incubated for 72 hrs by MTS assay; type: cell-based, Vero C1008; details: chlorocebus sabaeus
[9] = Selectivity ratio of CC50 for HAE cells to EC50 for SARS-CoV BJ-001 infected in African green monkey Vero E6 cells; type: toxicity, Vero C1008
[10] = Antiviral activity against HCoV-NL63 infected in Rhesus macaque LLC-MK2 cells incubated for 72 hrs by RT-PCR method; type: functional, cell-based; details: Human coronavirus NL63, LLC-MK2, 72 h
[11] = system: Human coronavirus OC43; assay: Antiviral activity against HCoV-OC43 infected in BALB/c mouse assessed as protection against virus-induced lethal infection at 15 mg/kg, ip administered for 14 days and measured up to 20 days; type: functional; details: time day <=20
[12] = in vitro; details: hamster, BHK-21 cells
[13] = in vitro; details: hamster, BHK-21 cells; remark: listed apart in the source
[14] = in vitro; details: rhesus monkey, LLC-MK2 cells
[15] = in vitro; details: rhesus monkey, LLC-MK2 cells; remark: listed apart in the source
[16] = system: SARS-CoV-2; assay: Antiviral activity against 2019-nCoV BetaCoV/Wuhan/WIV04/2019 infected in African green monkey VeroE6 cells assessed as reduction in viral yield preincubated with virus for 1 hr followed by cell infection and […] by qRT-PCR method; type: functional, organism-based; details: Severe acute respiratory syndrome coronavirus 2, BetaCoV/Wuhan/WIV04/2019, Vero C1008
[17] = Cytotoxicity against African green monkey Vero E6 cells by the CCK8 assay; type: cell-based, Vero C1008; details: chlorocebus sabaeus
[18] = Selectivity index, ratio of CC50 for African green monkey Vero E6 cells to EC50 for 2019-nCoV Beta CoV/Wuhan/WIV04/2019 infected in African green monkey Vero E6 cells; type: toxicity, Vero C1008; details: read-out: Ratio CC50/EC50
[19] = Selectivity index, ratio of CC50 for African green monkey Vero E6 cells to EC50 for SARS-CoV infected in African green monkey Vero E6 cells; type: toxicity, Vero C1008; details: read-out: Ratio CC50/EC50
[20] = Cytotoxicity against African green monkey Vero E6 cells incubated for 2 days by the MTS assay; type: cell-based, Vero C1008; details: chlorocebus sabaeus, time 2 day
[21] = system: SARS-CoV; assay: Antiviral activity against SARS-CoV infected in African green monkey Vero E6 cells assessed as reduction in viral replication by ELISA; type: functional, organism-based; details: Severe acute respiratory syndrome-related coronavirus, Vero C1008

Row | Structure (SMILES) | EC50 [5] | EC50 [10] | CC50 at 72 h [12] | selectivity ratio [13] | CC50 at 72 h [14] | selectivity ratio [15] | CC50 [17] | further results
1 | Cc1cccc(C)c1OCC(=O)N[C@@H](Cc1ccccc1)[C@@H](O)C[C@H](Cc1ccccc1)NC(=O)[C@H](C(C)C)N1CCCNC1=O [LOPINAVIR] | – | – | – | – | – | – | – | Activity [1]: 62.2%; CC50 at 1 h [2]: > 37.6 µM; CC50 at 72 h [3]: > 32 µM; Activity [4]: 55.6%
2 | O[C@H]1[C@H]2c3cc4c(cc3CN3CCC(=C[C@@H]1O)[C@H]23)OCO4 [LYCORINE] | 0.15 µM | 0.47 µM | 4.37 µM | 29.1 | 3.81 µM | 8.11 | – | IC50 [6]: 0.0157 µM; IC50 [7]: 0.0157 µM; CC50 at 72 h [8]: 14.9 µM; selectivity ratio [9]: 954; Activity [11]: 83.3%
3 | CC[C@@]1([C@H]2O[C@H]([C@H]3O[C@@](O)(CO)[C@H](C)C[C@@H]3C)C[C@H]2C)CC[C@H]([C@@]2(C)CC[C@]3(C[C@H](O)[C@@H](C)[C@@H]([C@H](C)[C@H](OC)[C@@H](C)C(=O)O)O3)O2)O1 [MONENSIN SODIUM] | 3.81 µM | 1.54 µM | – | – | – | – | – | –
4 | COc1c(C)c2c(c(O)c1C/C=C(\C)CCC(=O)OCCN1CCOCC1)C(=O)OC2 [MYCOPHENOLATE MOFETIL] | 1.58 µM | 0.23 µM | 3.43 µM | 2.2 | 3.01 µM | 13 | – | –
5 | COc1c(C)c2c(c(O)c1C/C=C(\C)CCC(=O)O)C(=O)OC2 [MYCOPHENOLIC ACID] | 1.95 µM | 0.18 µM | 3.55 µM | 1.8 | 3.44 µM | 19 | – | –
6 | N=C(N)c1ccc2cc(OC(=O)c3ccc(N=C(N)N)cc3)ccc2c1 [NAFAMOSTAT] | – | – | – | – | – | – | > 100 µM | EC50 [16]: 22.5 µM; selectivity ratio [18]: > 4.4
7 | CC(=O)Oc1ccccc1C(=O)Nc1ncc([N+](=O)[O-])s1 [NITAZOXANIDE] | – | – | – | – | – | – | > 35.5 µM | EC50 [16]: 2.12 µM; selectivity ratio [18]: > 16.7
8 | Nc1nc2c(ncn2CCC(CO)CO)c(=O)[nH]1 [PENCICLOVIR] | – | – | – | – | – | – | > 400 µM | IC50 [16]: 95.9 µM; selectivity ratio [18]: > 4.2
9 | Nc1ccc(/N=N/c2ccccc2)c(N)n1 [PHENAZOPYRIDINE] | 1.9 µM | 2.02 µM | > 20 µM | > 10 | > 20 µM | > 9.9 | – | –
10 | Cc1cc(/C=C/c2ccc3cc(N(C)C)ccc3[n+]2C)c(C)n1-c1ccccc1 [PYRVINIUM PAMOATE] | 3.21 µM | 3.35 µM | – | – | – | – | – | –
11 | COC(=O)[C@H]1[C@H]2C[C@@H]3c4[nH]c5cc(OC)ccc5c4CCN3C[C@H]2C[C@@H](OC(=O)c2cc(OC)c(OC)c(OC)c2)[C@@H]1OC [RESERPINE] | – | – | – | – | – | – | – | selectivity ratio [19]: 7.3; CC50 at 48 h [20]: 25 µM; IC50 [21]: 3.4 µM
12 | NC(=O)c1ncn([C@@H]2O[C@H](CO)[C@@H](O)[C@H]2O)n1 [RIBAVIRIN] | – | – | – | – | – | – | > 400 µM | –
13 | CC(C)[C@@H]1NC(=O)[C@H](C)OC(=O)[C@@H](C(C)C)NC(=O)[C@@H](C(C)C)OC(=O)[C@H](C(C)C)NC(=O)[C@H](C)OC(=O)[C@@H](C(C)C)NC(=O)[C@@H](C(C)C)OC(=O)[C@H](C(C)C)NC(=O)[C@H](C)OC(=O)[C@@H](C(C)C)NC(=O)[C@@H](C(C)C)OC1=O [VALINOMYCIN] | – | – | – | – | – | – | – | selectivity ratio [19]: 80; CC50 at 48 h [20]: 68 µM; IC50 [21]: 0.85 µM
